Values joined by “and” are separate entries in the source; they are usually repeats but may differ in a detail not shown here. Identical values can stand only once. Inconclusive results and toxic doses are left out. The calls were made as follows: active = survival T/C of 150% or more; inactive = T/C below 125% in these data. Square brackets hold non-standard residues; d marks the D form. Peptide text beside a SMILES is read from it. Hpg = N[CH](C(=O)O)c1ccc(O)cc1
Test system: P388 leukemia ip, CD2F1 mice, survival T/C
Assay: NCI In Vivo Anticancer Drug Screen. Data for tumor model P388 Leukemia (intraperitoneal) in CD2F1 (CDF1) mice
Conditions: endpoint: median survival time, higher = longer survival
In short: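 Mice carrying the transplanted tumor received test compound or vehicle. Survival was recorded in each group, and the value is the treated-group measurement divided by that of the vehicle-treated control group.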

[1] = dose: 50.0 mg/kg/injection, schedule: Q04DX003 (ip), vehicle: saline with Tween-80
[2] = dose: 100.0 mg/kg/injection, schedule: Q04DX003 (ip), vehicle: saline with Tween-80
[3] = dose: 200.0 mg/kg/injection, schedule: Q04DX003 (ip), vehicle: saline with Tween-80
[4] = dose: 50.0 mg/kg/injection, schedule: Q01DX009 (ip), vehicle: saline with Tween-80
[5] = dose: 100.0 mg/kg/injection, schedule: Q01DX009 (ip), vehicle: saline with Tween-80
[6] = dose: 200.0 mg/kg/injection, schedule: Q01DX009 (ip), vehicle: saline with Tween-80
[7] = dose: 50.0 mg/kg/injection, schedule: Q01DX005 (ip), vehicle: saline with Tween-80
[8] = dose: 100.0 mg/kg/injection, schedule: Q01DX005 (ip), vehicle: saline with Tween-80
[9] = dose: 200.0 mg/kg/injection, schedule: Q01DX005 (ip), vehicle: saline with Tween-80
[10] = dose: 30.0 mg/kg/injection, schedule: Q01DX005 (ip), vehicle: Klucel (hydroxypropylcellulose) (HPC)
[11] = dose: 50.0 mg/kg/injection, schedule: Q01DX005 (ip), vehicle: Klucel (hydroxypropylcellulose) (HPC)
[12] = dose: 100.0 mg/kg/injection, schedule: Q01DX005 (ip), vehicle: Klucel (hydroxypropylcellulose) (HPC)
[13] = dose: 200.0 mg/kg/injection, schedule: Q01DX005 (ip), vehicle: Klucel (hydroxypropylcellulose) (HPC)
[14] = dose: 100.0 mg/kg/injection, schedule: Q04DX003 (ip), vehicle: Klucel (hydroxypropylcellulose) (HPC)
[15] = dose: 200.0 mg/kg/injection, schedule: Q04DX003 (ip), vehicle: Klucel (hydroxypropylcellulose) (HPC)

Measured: T/C

COc1cc(C=C(C(C)=O)C(C)=O)ccc1O
inactive: [1] 100 % of control | [2] 100 % of control | [3] 100 % of control

CCOCC1COc2c(cc3[nH]cc(C(=O)OCC)c(=O)c3c2Cl)O1 (stereo not given) (tested in a mixture with another compound)
inactive: [4] 94 % of control | [5] 99 % of control | [6] 101 % of control

CCOC(=O)CC(=O)c1sc(Nc2ccccc2)c(C(N)=O)c1N
inactive: [7] 100 % of control | [8] 94 % of control | [9] 94 % of control

CC(C)CC(N)C(=O)NC(C(N)=O)c1ccc(O)cc1 (stereo not given) (H-Leu-[Hpg]-NH2; configuration not given here)
inactive: dose: 50.0 mg/kg/injection, schedule: Q01DX009 (ip), vehicle: saline 101 % of control | dose: 100.0 mg/kg/injection, schedule: Q01DX009 (ip), vehicle: saline 92 % of control | dose: 200.0 mg/kg/injection, schedule: Q01DX009 (ip), vehicle: saline 88 % of control

COC(=O)CC(=O)c1ccc(OC(C)C)cc1
inactive: [5] 100 % of control | [2] 100 % of control | [6] 100 % of control | [3] 95 % of control | dose: 400.0 mg/kg/injection, schedule: Q01DX009 (ip), vehicle: saline with Tween-80 100 % of control | dose: 400.0 mg/kg/injection, schedule: Q04DX003 (ip), vehicle: saline with Tween-80 100 % of control

Nc1nc(Cl)cc(Cl)n1
inactive: dose: 12.5 mg/kg/injection, schedule: Q01DX009 (ip), vehicle: Klucel (hydroxypropylcellulose) (HPC) 94 % of control | dose: 25.0 mg/kg/injection, schedule: Q01DX009 (ip), vehicle: Klucel (hydroxypropylcellulose) (HPC) 107 % of control | dose: 50.0 mg/kg/injection, schedule: Q01DX009 (ip), vehicle: Klucel (hydroxypropylcellulose) (HPC) 108 % of control | dose: 100.0 mg/kg/injection, schedule: Q01DX009 (ip), vehicle: Klucel (hydroxypropylcellulose) (HPC) 99 % of control

CC1(C)CCC2(C(=O)O)CCC3(C)C(=CCC4C5(C)CCC(OC6OC(CO)C(O)C(OC7OC(CO)C(O)C(O)C7O)C6OC6OC(CO)C(O)C(O)C6O)C(C)(C)C5CCC43C)C2C1 (stereo not given)
inactive: dose: 3.75 mg/kg/injection, schedule: Q01DX005 (ip), vehicle: Klucel (hydroxypropylcellulose) (HPC) 102 % of control | dose: 7.5 mg/kg/injection, schedule: Q01DX005 (ip), vehicle: Klucel (hydroxypropylcellulose) (HPC) 100 % of control | dose: 15.0 mg/kg/injection, schedule: Q01DX005 (ip), vehicle: Klucel (hydroxypropylcellulose) (HPC) 88 % of control | [10] 100 % of control

COc1cc(OC)cc(C2(C(O)C3OC(C)(C)OC3C)SCCCS2)c1 (stereo not given)
inactive: dose: 100.0 mg/kg/injection, schedule: Q01DX001 (ip), vehicle: Klucel (hydroxypropylcellulose) (HPC) 103 % of control | dose: 200.0 mg/kg/injection, schedule: Q01DX001 (ip), vehicle: Klucel (hydroxypropylcellulose) (HPC) 99 % of control | dose: 400.0 mg/kg/injection, schedule: Q01DX001 (ip), vehicle: Klucel (hydroxypropylcellulose) (HPC) 97 % of control

COc1ccc(/C(CC2(O)C(=O)Nc3ccccc32)=N\NC(=O)NN)cc1O (stereo not given)
inactive: [7] 101 % of control | [8] 107 % of control | [9] 100 % of control

CCOC(=O)c1nc2nc3cc(OC)c(OC)cc3cc2c(=O)[nH]1
inactive: dose: 25.0 mg/kg/injection, schedule: Q01DX005 (ip), vehicle: Klucel (hydroxypropylcellulose) (HPC) 93 % of control | [11] 87 % of control | [12] 86 % of control and 89 % of control | [13] 91 % of control

CC1(C)CSCC(C)(C)C2(C=CC=CC=N2)C1=O (stereo not given)
inactive: [11] 107 % of control | [12] 115 % of control

COC(=O)C1=C(C(=O)OC)C2C=CC1C1C(Cl)C(Cl)C21 (stereo not given)
inactive: dose: 7.5 mg/kg/injection, schedule: Q01DX009 (ip), vehicle: saline with Tween-80 103 % of control | dose: 15.0 mg/kg/injection, schedule: Q01DX009 (ip), vehicle: saline with Tween-80 112 % of control | dose: 30.0 mg/kg/injection, schedule: Q01DX009 (ip), vehicle: saline with Tween-80 115 % of control | [5] 95 % of control | [6] 90 % of control

CCCCC(CC)CCC(C)O (stereo not given)
inactive: [1] 100 % of control | [2] 109 % of control

CCOc1nnc(-c2ccc(OC)c(OC)c2)o1
inactive: dose: 12.5 mg/kg/injection, schedule: Q01DX009 (ip), vehicle: other 90 % of control | dose: 100.0 mg/kg/injection, schedule: Q01DX009 (ip), vehicle: other 106 % of control | dose: 200.0 mg/kg/injection, schedule: Q01DX009 (ip), vehicle: other 90 % of control

N=C(N)S(=O)(=O)c1ccccc1
inactive: dose: 12.5 mg/kg/injection, schedule: Q04DX003 (ip), vehicle: Klucel (hydroxypropylcellulose) (HPC) 102 % of control and 106 % of control | dose: 25.0 mg/kg/injection, schedule: Q04DX003 (ip), vehicle: Klucel (hydroxypropylcellulose) (HPC) 106 % of control and 108 % of control (2×) | dose: 50.0 mg/kg/injection, schedule: Q04DX003 (ip), vehicle: Klucel (hydroxypropylcellulose) (HPC) 102 % of control and 107 % of control and 121 % of control | [14] 112 % of control | [15] 118 % of control

CC1CC(O)C(CN(C)C)C(C)(C)C1 (stereo not given)
inactive: [7] 106 % of control | [8] 100 % of control

Cc1ccc(N2CCN(CC(O)COc3cc4ccccc4c4c3CCCC4)CC2)cc1C (stereo not given)
inactive: [14] 95 % of control | [15] 104 % of control | dose: 400.0 mg/kg/injection, schedule: Q04DX003 (ip), vehicle: Klucel (hydroxypropylcellulose) (HPC) 108 % of control

CN(C)C(=S)S(=O)(=O)c1ccc(Cl)cc1
inactive: dose: 12.5 mg/kg/injection, schedule: Q01DX009 (ip), vehicle: saline with Tween-80 105 % of control | dose: 25.0 mg/kg/injection, schedule: Q01DX009 (ip), vehicle: saline with Tween-80 96 % of control | dose: 25.0 mg/kg/injection, schedule: Q04DX002 (ip), vehicle: Klucel (hydroxypropylcellulose) (HPC) 119 % of control | [4] 96 % of control | dose: 50.0 mg/kg/injection, schedule: Q04DX002 (ip), vehicle: Klucel (hydroxypropylcellulose) (HPC) 112 % of control

C/C(=N\NC(N)=O)c1ccc(Cl)c(-n2cccc2)c1
inactive: [11] 92 % of control | [12] 91 % of control | [13] 94 % of control

O=C(NC(Cc1ccccc1)C(=O)CCl)OCc1ccccc1 (stereo not given)
inactive: dose: 25.0 mg/kg/injection, schedule: Q01DX009 (ip), vehicle: other 107 % of control | dose: 25.0 mg/kg/injection, schedule: Q04DX003 (ip), vehicle: saline with Tween-80 115 % of control | dose: 50.0 mg/kg/injection, schedule: Q01DX009 (ip), vehicle: other 105 % of control | [1] 111 % of control | [2] 119 % of control

Cc1ccc(C(C)C)c2c1CN(CCCN1COc3c(C(C)C)ccc(C)c3C1)CO2
inactive: dose: 60.0 mg/kg/injection, schedule: Q01DX005 (ip), vehicle: saline with Tween-80 91 % of control | dose: 120.0 mg/kg/injection, schedule: Q01DX005 (ip), vehicle: saline with Tween-80 86 % of control

Nc1ncnc2c1cnn2CCCl
inactive: dose: 6.25 mg/kg/injection, schedule: Q01DX009 (ip), vehicle: saline 95 % of control | dose: 12.5 mg/kg/injection, schedule: Q01DX009 (ip), vehicle: saline 100 % of control | dose: 25.0 mg/kg/injection, schedule: Q01DX009 (ip), vehicle: saline 100 % of control

CC(=O)/C(=C\c1ccc(Cl)cc1)C(=O)CCN(C)C
inactive: dose: 50.0 mg/kg/injection, schedule: Q01DX005 (ip), vehicle: saline 112 % of control | dose: 100.0 mg/kg/injection, schedule: Q01DX005 (ip), vehicle: saline 118 % of control

Cc1ccc2ccccc2[n+]1CC(=O)c1ccc2c(c1)OCO2
inactive: [7] 110 % of control | [8] 105 % of control | [9] 103 % of control

COc1cccc(/C=C/C(C)=N/NC(N)=O)c1
inactive: [10] 100 % of control | dose: 60.0 mg/kg/injection, schedule: Q01DX005 (ip), vehicle: Klucel (hydroxypropylcellulose) (HPC) 101 % of control | dose: 120.0 mg/kg/injection, schedule: Q01DX005 (ip), vehicle: Klucel (hydroxypropylcellulose) (HPC) 100 % of control | dose: 240.0 mg/kg/injection, schedule: Q01DX005 (ip), vehicle: Klucel (hydroxypropylcellulose) (HPC) 95 % of control

Reference: PubChem BioAssay AID330 (DTP/NCI, 2004)
